Measured values from paper PMC2959035, “Comparative biochemical analysis of recombinant reverse transcriptase enzymes of HIV-1 subtype B and subtype C” (Retrovirology, 2010).
Like-named read-outs stand apart in the source and are kept apart here.

Experiments:
Assay in all cases: RNA-dependent DNA polymerase assay, [3H]-dTTP incorporation
Assay type in all cases: biochemical
[1] = biological target: T1, C RT-2 (HIV-1 subtype C RT, isolate M01) (HIV-1 M:C_92BR025, UniProt O12158); conditions: HIV-1 PBS RNA/dPR template/primer 30 nM, dNTPs 5 μM each, 6 mM MgCl2, 60 mM KCl, pH 7.8, 37°C, 30 min, read-out: IC50 (μM)^a / C RT-2 ^e
T1 construct: gene gag-pol; p66/p51 heterodimer cut from the Pol (Gag-Pol) polyprotein; His-tagged, E. coli; with p51 RT of Gag-Pol polyprotein
Text: RNA-dependent DNA polymerase assay, [3H]-dTTP incorporation on C RT-2 (HIV-1 subtype C RT, isolate M01)

[2] = biological target: T2, B RT-1 (HIV-1 subtype B RT, NL4-3) (Human immunodeficiency virus type 1 (NEW YORK-5 ISOLATE), UniProt P12497)
T2 construct: gene gag-pol; p66/p51 heterodimer cut from the Pol (Gag-Pol) polyprotein; plasmid pbRT6H-PROT with co-expressed HIV-1 protease; 6-His tag; E. coli M15; Ni-NTA, DEAE- and SP-Sepharose; with p51 RT of Gag-Pol polyprotein
Text: RNA-dependent DNA polymerase assay, [3H]-dTTP incorporation on B RT-1 (HIV-1 subtype B RT, NL4-3)

[3] = biological target: T3, B RT-2 (HIV-1 subtype B RT, HXB2) (HIV-1 M:B_HXB2R, UniProt P04585)
T3 construct: gene gag-pol; p66/p51 heterodimer cut from the Pol (Gag-Pol) polyprotein; plasmid pRT6H-PROT with co-expressed HIV-1 protease; 6-His tag; E. coli M15; Ni-NTA, DEAE- and SP-Sepharose; with p51 RT of Gag-Pol polyprotein
Text: RNA-dependent DNA polymerase assay, [3H]-dTTP incorporation on B RT-2 (HIV-1 subtype B RT, HXB2)

[4] = nucleotide analogue, competitive at active site
[5] = NNRTI, non-competitive allosteric
[6] = read-out: IC50 (μM)^a / B RT-1^b
[7] = read-out: IC50 (μM)^a / B RT-2^c

SMILES | IC50 [1, 4] | IC50 [1, 5] | IC50 [2, 6] | IC50 [3, 7] | further results
Nc1ccn([C@@H]2CS[C@H](COP(=O)(O)OP(=O)(O)OP(=O)(O)O)O2)c(=O)n1 [3TC-TP] | 4.1 ± 0.4 µM | – | – | – | IC50 [2]: 2.7 ± 0.3 µM
O=C1Nc2ccc(Cl)cc2[C@@](C#CC2CC2)(C(F)(F)F)O1 [EFV] | – | 0.18 ± 0.02 µM | – | – | –
Cc1cc(C#N)cc(C)c1Oc1nc(Nc2ccc(C#N)cc2)nc(N)c1Br [ETR] | – | 0.19 ± 0.03 µM | 0.17 ± 0.03 µM | 0.16 ± 0.02 µM | –
Cc1ccnc2c1NC(=O)c1cccnc1N2C1CC1 [NVP] | – | 4.3 ± 0.3 µM | – | – | –
C[C@H](Cn1cnc2c(N)ncnc21)OCP(=O)(O)OP(=O)(O)OP(=O)(O)O [TFV-DP] | 2.9 ± 0.4 µM | – | 2.5 ± 0.3 µM | 2.1 ± 0.3 µM | –
Cc1cn([C@H]2C[C@H](N=[N+]=[N-])[C@@H](CO[P@](=O)(O)O[P@](=O)(O)OP(=O)(O)O)O2)c(=O)[nH]c1=O [ZDV-TP] | – | – | – | – | IC50 ([1]; 150 μM sodium pyrophosphate included, nucleotide analogue, competitive at active site): 3.8 ± 0.5 µM; IC50 [3]: 2.9 ± 0.4 µM
